Data from US20140248292A1, “COMPOSITIONS AND METHODS FOR TREATING CANCER” (priority 2013, published 2014).

How the values were obtained:
[1] = test system: PMP-1 model; test: In vivo tumor growth, orthotopic PMP-1 model, single i.p. injection; conditions: both tested doses (2.5 and 5 mg/kg i.p.)
[2] = test system: PMCA-1 model; test: In vivo tumor growth, orthotopic PMCA-1 model, single i.p. injection; conditions: 5 mg/kg vs 2.5 mg/kg i.p.
[3] = test system: PMP-2 model; test: In vivo tumor growth, orthotopic PMP-2 model, single injection
[4] = test system: orthotopic models of mucinous peritoneal surface malignancies; test: In vivo tumor growth, orthotopic models of mucinous peritoneal surface malignancies (model not singled out); conditions: all models; 10 mg/kg i.p.
[5] = test system: 2774 ovarian peritoneal carcinomatosis; test: 2774 ovarian peritoneal carcinomatosis mouse model; assay type: in vivo; conditions: 2774 model; treatment initiated on day 2
Text: The therapeutic potential of intraperitoneal administration of MOC31PE was then investigated in two experimental mouse models based on the ovarian cancer cell lines B76 (FIG. 15) and 2774 (FIG. 16). The animals were divided into three groups. Day 1 the animals were intraperitoneal injected with B76 cancer cell to mimic the situation in patients after cytoreductive surgery, were non-visible cancer cells are still left. MOC31PE treatment was initiated the day after (Day 2) or on day 8, as indicated by giving either MOC31PE 50 μg/kg intraperitoneal injection (i.p.) or 32 μg/kg intravenous injection (i.v.). […] Disease progression, as increase of abdominal size and other signs of symptoms, were measured twice weekly. Body weight was recorded throughout the experiments. Survival as a function of treatment was analysed by Kaplan-Meier plots.

[6] = test system: mucinous tumor tissue (PMP-2, PMCA-2, PMP-3, PMP-6); test: Ex vivo PARP cleavage, Western immunoblot; assay type: cell-based, human; conditions: 24 h, PMP-2 xenograft tissue and both patient samples
Procedure: The mucinous cell suspension was seeded in 48-well plates (500 μl/well). […] Thereafter, the cells were lysed by using an SDS boiling method as described previously (Andersson2009). In brief, cell pellets were resuspended in lysis buffer (2% SDS, 1 mM Na3VO4, and 10 mM Tris-Cl (pH 7.6)), which was held at 100° C. when added, and the lysates were boiled for 5 min. After six passages through a 20G syringe on ice, the lysates were cleared by centrifugation. Protein concentrations were then determined using the BCA (bicinchoninic acid) protein assay (Pierce, Rockford, Ill.). The lysates were snap frozen in liquid N2 and kept at −70° C. A portion (15 μg) of each protein lysate was fractionated by 4-12% NuPAGE Bis-Tris gel electrophoresis (Invitrogen, Carlsbad, Calif.), and subsequently transferred by electroblotting to Immobilon membranes (Millipore, Bedford, Mass.). The filters were probed with an anti-PARP antibody (Roche Diagnostics, Mannheim, Germany), anti-EpCAM (MOC31, IQ Corporation, Groningen, the Netherlands) or with anti-alpha tubulin (Calbiochem, La Jolla, Calif.). Immune complexes were detected with an appropriate HRP-coupled secondary antibody. Peroxidase activity was visualized with […] (Amersham Pharmacia Biotech, Buckinghamshire, UK). The western blots were probed with anti-α-tubulin antibody to confirm equal loading and transfer of samples.

With `CO[C@@]12[C@H](COC(N)=O)C3=C(C(=O)C(C)=C(N)C3=O)N1C[C@@H]1N[C@@H]12` [Mitomycin C, mitomycin C] the “tumor growth within the observation period” value [1] was “almost completely inhibited tumor growth”, the “efficacy, comparison of doses” value [2] was 5 mg/kg was more efficacious than 2.5 mg/kg and the “inhibition of tumor growth” value ([3]; all tested doses, single i.p.) was “substantial inhibition of tumor growth”. For the same compound, the “tumor growth within the observation period” value ([3]; both tested doses (2.5 and 5 mg/kg i.p.)) was “almost completely inhibited tumor growth”.

In the case of `O=C1[O][Pt]2([NH][C@@H]3CCCC[C@H]3[NH]2)[O]C1=O` [Oxaliplatin, oxaliplatin], the “growth inhibition (growth indices) compared to vehicle-treated animals” value [4] is reported as “only slight reduction of growth indices”.

With `CC(=O)O[C@H]1C(=O)[C@@]2(C)[C@H]([C@H](OC(=O)c3ccccc3)[C@]3(O)C[C@H](OC(=O)[C@H](O)[C@@H](NC(=O)c4ccccc4)c4ccccc4)C(C)=C1C3(C)C)[C@]1(OC(C)=O)CO[C@@H]1C[C@@H]2O` [Ptx, Paclitaxel] the “survival / disease progression, combinatorial treatment experiment” value [5] was “significant effect on disease progression”.

For pseudomonas exotoxin A [PE toxin], the “PARP cleavage / PARP inactivation (Western immunoblot)” value [6] was “No PARP inactivation was evident”.
